Measured values reported in patent publication US20070276049A1 (priority 2003, published 2007).
Read-outs that look alike come from different tables or passages of the source.

Tests used:
[1] = test system: Streptococcus pyogenes T18P; format: cell-based, S. pyogenes; conditions: GML 10 and 20 ug/ml
rabbit RBCs [2] = format: cell-based
rabbit RBCs [3] = test system: rabbit RBCs
rabbit RBCs [4] = experiment: Streptolysin O-induced hemolysis on RBC-containing agar plates; format: cell-based; conditions: GML 10 μg/ml in agar; Group A Streptococci stabbed into agar
Description: GML (10 μg/ml) was incorporated into culture plates containing solid agar and rabbit RBCs suspended in the agar. The effect of GML on. streptolysin O-induced hemolysis was tested by stabbing the Group A Streptococci into the agar so as to permit the anaerobic growth of the bacteria beneath the surface of the agar and thereby allow streptolysin O to function.

HIV-1 = format: cell-based
human RBCs = format: cell-based

| Compound | number of bacteria in the epithelial cells [1] | lysis of RBCs by hemolysin (rabbit RBCs [2]) | RBC lysis by GML alone (rabbit RBCs [3]) | lysis of rabbit RBCs by the B. anthracis exotoxin (rabbit RBCs [3]; GML 5 μg/ml) | lysis of rabbit RBCs by the B. anthracis exotoxin (rabbit RBCs [3]; GML 10 μg/ml) | streptolysin O-induced hemolysis of RBCs (rabbit RBCs [4]) | cells expressing p24 (HIV-1) | total number of cells in the samples (HIV-1) | lysis of human RBCs by the B. anthracis exotoxin (human RBCs; GML 1 μg/ml) | lysis of human RBCs by the B. anthracis exotoxin (human RBCs; GML 10 μg/ml) | Absorbance at 410 nm (rabbit RBCs [2]) | lysis of RBCs (rabbit RBCs [2]) |
| --- | --- | --- | --- | --- | --- | --- | --- | --- | --- | --- | --- | --- |
| CCCCCCCCCCCC(=O)OCC(O)CO (stereo not drawn) [GML, glycerol monolaurate] | dramatic decreases | completely prevented | did not cause RBC lysis | partially inhibited | almost completely inhibited | completely prevented | rare and no | significantly less | partially inhibited | completely inhibited | – | – |
| α-hemolysin | – | – | – | – | – | – | – | – | – | – | 0.97 | complete cell lysis |
